The results in this text go back to patent publication US6534446B1, “Method to mitigate plant stress” (Emerald BioAgriculture Corporation, priority 1994, dated 2003).

Common to all, as to type: in vivo
Data set [1] deals with Roundup Ready cotton seeds. Kind of data set: Cold-induced inhibition of cotton seed germination. As to conditions: for number of cotton seeds germinated / Fresh Wt.: 300 ppm each component; for Fresh Wt.: seedlings harvested 17 days after planting.
Data set [2] concerns cabbage plants. Kind of data set: Heat stress in cabbage, fresh weight. Conditions: CaNO3 2500 ppm alone.
Data set [3] deals with Duckweed. Kind of data set: Copper salt stress in duckweed, dry weight. As to conditions: fifteen days of growth.

For the compound `O=[N+]([O-])[O-].O=[N+]([O-])[O-].[Ca+2]` [CaNO3, calcium nitrate], the “number of cotton seeds germinated” value was determined as 0 in data set [1] (5 days after planting, 59° F. (15° C.)/50° F. (10° C.), 45 seeds); 9 in data set [1] (5 days after planting, 75° F. (24° C.), 45 seeds per treatment); 0 in data set [1] (7 days after planting, 59° F. (15° C.)/50° F. (10° C.), 45 seeds); 38 in data set [1] (7 days after planting, 75° F. (24° C.), 45 seeds); 6 in data set [1] (9 days after planting, 59° F. (15° C.)/50° F. (10° C.), 45 seeds); 41 in data set [1] (9 days after planting, 75° F. (24° C.), 45 seeds). The “number of cotton seeds germinated” value in data set [1] (13 days after planting, 59° F. (15° C.)/50° F. (10° C.), 45 seeds) is on record as 23; in data set [1] (13 days after planting, 75° F. (24° C.), 45 seeds) it was 42; in data set [1] (17 days after planting, 59° F. (15° C.)/50° F. (10° C.), 45 seeds), 31; in data set [1] (17 days after planting, 75° F. (24° C.), 45 seeds), 43. The “seeds germinated, % of all seeds” value in data set [1] (9 days after planting, low temperatures, 45 seeds per treatment) amounted to 13%. Also, the “Fresh Wt.” value came to 4.01 g in data set [1] (59° F. (15° C.)/50° F. (10° C.)) and 8.70 g in data set [1] (75° F. (24° C.)). For the same compound, the “Mean Fresh Weight (g) ± SD” value in data set [2] (oven at 48° C. (118° F.) for twelve hours, weighed one week later) amounted to 28.8 ± 5.6 g. The “% of Room Temperature Control” value in data set [2] (oven at 48° C. for twelve hours) turned out to be 77%.
For `O.O.O.O.O.O=S(=O)([O-])[O-].[Cu+2]` [Copper, CuSo4SH2O], in data set [3] (Copper 1.7 ppm), the “Average Dry Weight (mg) ± SD” value amounted to 18.0 ± 4.7 mg. In data set [3] (Copper 3.3 ppm), the “% Change From Control” value is recorded as −70% and the “Average Dry Weight (mg) ± SD” value was 8.3 ± 0.7 mg.
